Data: patent US8815853B2, “Pyrimidinone derivatives, preparation thereof and pharmaceutical use thereof” (Sanofi, priority 2010, dated 2014)

Legend:
Vps34 = molecular target: T1, Vps34 (Homo sapiens, UniProt Q8NEB9); assay: Phosphorylation of phosphatidylinositol (PI) with Vps34 in vitro, ADP detected by TR-FRET (HTRF Transcreener ADP kit); format: biochemical; settings: 10 μM ATP, 55 μg/mL PI, about 3 nM of Vps34, 1 hour at room temperature; absolute CI50, average of 2 independent experiments; read-out: VPS34 CI 50
T1 construct: purchased Invitrogen PV5126
T1 sequence (Q8NEB9 whole entry): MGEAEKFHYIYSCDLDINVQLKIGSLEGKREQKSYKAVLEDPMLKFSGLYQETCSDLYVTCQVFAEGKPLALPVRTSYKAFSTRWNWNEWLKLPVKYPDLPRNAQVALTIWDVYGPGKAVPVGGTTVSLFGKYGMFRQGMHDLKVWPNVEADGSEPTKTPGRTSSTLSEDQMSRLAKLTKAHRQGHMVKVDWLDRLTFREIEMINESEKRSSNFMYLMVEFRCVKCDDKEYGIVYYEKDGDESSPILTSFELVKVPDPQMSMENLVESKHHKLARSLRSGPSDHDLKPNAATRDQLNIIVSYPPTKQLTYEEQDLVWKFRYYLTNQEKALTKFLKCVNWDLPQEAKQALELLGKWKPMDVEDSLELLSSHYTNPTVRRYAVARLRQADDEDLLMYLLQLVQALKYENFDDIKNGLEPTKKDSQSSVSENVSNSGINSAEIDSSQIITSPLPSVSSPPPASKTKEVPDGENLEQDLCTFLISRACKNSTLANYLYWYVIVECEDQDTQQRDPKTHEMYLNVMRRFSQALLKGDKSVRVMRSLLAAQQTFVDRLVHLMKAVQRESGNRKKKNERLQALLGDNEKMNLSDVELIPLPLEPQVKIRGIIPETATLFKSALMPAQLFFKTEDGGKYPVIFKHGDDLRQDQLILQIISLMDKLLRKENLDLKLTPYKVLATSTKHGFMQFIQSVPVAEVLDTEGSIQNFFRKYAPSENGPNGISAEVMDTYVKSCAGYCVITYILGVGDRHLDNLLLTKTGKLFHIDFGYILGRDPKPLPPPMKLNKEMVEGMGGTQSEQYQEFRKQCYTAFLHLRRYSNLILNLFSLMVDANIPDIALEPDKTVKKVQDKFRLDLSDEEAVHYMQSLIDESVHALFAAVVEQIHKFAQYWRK
Description: Study of the Phosphorylation of Phosphatidylinositol (PI) with Vps34 In Vitro
This test is based on the detection of the ADP produced during phosphorylation of PI with Bps34 in the presence of ATP. ADP is detected by TR-FRET (Time resolved—Fluorescence Resonance Energy transfer) by using the Transcreener kit marketed by Cisbio (HTRF® Transcreener® ADP, reference 62ADPPEB).
The reaction is started with 10 μL of an ATP solution (Sigma A7699) in a buffer A and lasts for 1 hour at room temperature. […] The enzyme amount is adapted to each batch so as to form about 2 μM of ADP during the reaction. In parallel, an ADP and ATP range giving the possibility of calibration results is prepared according to the indications of the kit. Controls not containing any enzyme (negative control) or not containing any molecules (positive control) are also prepared in parallel. […] Fluorescence emission is detected on a Rubystar apparatus at 620 and 665 nm. The signal ratio is calculated by dividing the 665 nm signal by the 620 nm signal and then by multiplying by 10,000. The signal ratios are converted into an ADP concentration by using the calibration range and according to the instructions of the kit. The percentages of inhibition of the molecules are calculated relatively to the positive controls according to the formula (1−signal ratio of the molecule/signal ratio of the positive control)×100. […] With 2 independent experiments it is possible to calculate the average of the CI50s.

Row | IC50 (Vps34) [nM] | melting point [°C] | SMILES
1 | < 10 | – | CCC(CC)CN1c2nc(N3CCOCC3)cc(=O)n2C[C@@]1(C)C(F)(F)F [Example 1a, (2S)-1-(2-Ethylbutyl)-2-methyl-7-(morpholin-4-yl)-2-(trifluoromethyl)-2,3-dihydroimidazo[1,2-a]pyrimidin-5(1H)-one]
2 | < 10 | – | CCC(CC)CN1c2nc(N3CCOCC3)cc(=O)n2CC[C@H]1C(F)(F)F [Example 1b, (8S)-9-(2-Ethylbutyl)-2-(morpholin-4-yl)-8-(trifluoromethyl)-6,7,8,9-tetrahydro-4H-pyrimido[1,2-a]pyrimidin-4-one]
3 | < 10 | – | C[C@@]1(C(F)(F)F)Cn2c(nc(N3CCOCC3)cc2=O)N1C1CC1 [Example 2a, (2S)-1-Cyclopropyl-2-methyl-7-(morpholin-4-yl)-2-(trifluoromethyl)-2,3-dihydroimidazo[1,2-a]pyrimidin-5(1H)-one]
4 | < 10 | – | O=c1cc(N2CCOCC2)nc2n1CC[C@@H](C(F)(F)F)N2CC1CC1 [Example 2b, (8S)-9-(Cyclopropylmethyl)-2-(morpholin-4-yl)-8-(trifluoromethyl)-6,7,8,9-tetrahydro-4H-pyrimido[1,2-a]pyrimidin-4-one]
5 | < 10 | – | C[C@@]1(C(F)(F)F)Cn2c(nc(N3CCOCC3)cc2=O)N1C1CCCC1 [Example 3a, (2S)-1-Cyclopentyl-2-methyl-7-(morpholin-4-yl)-2-(trifluoromethyl)-2,3-dihydroimidazo[1,2-a]pyrimidin-5(1H)-one]
6 | < 10 | – | O=c1cc(N2CCOCC2)nc2n1CC[C@@H](C(F)(F)F)N2C1CCCC1 [Example 3b, (8S)-9-Cyclopentyl-2-(morpholin-4-yl)-8-(trifluoromethyl)-6,7,8,9-tetrahydro-4H-pyrimido[1,2-a]pyrimidin-4-one]
7 | 10 to 100 | 88 | CC(C)OCCN1c2nc(N3CCOCC3)cc(=O)n2C[C@@]1(C)C(F)(F)F [Example 4a, (S)-1-(2-Isopropoxy-ethyl)-2-methyl-7-(morpholin-4-yl)-2-(trifluoromethyl)-2,3-dihydroimidazo[1,2-a]pyrimidin-5(1H)-one]
8 | 10 to 100 | 117 | O=c1cc(N2CCOCC2)nc2n1CC[C@@H](C(F)(F)F)N2CCO [Example 4b, (8S)-9-(2-Hydroxyethyl)-2-(morpholin-4-yl)-8-(trifluoromethyl)-6,7,8,9-tetrahydro-4H-pyrimido[1,2-a]pyrimidin-4-one]
9 | 10 to 100 | 72 | CC(C)(O)CN1c2nc(N3CCOCC3)cc(=O)n2C[C@@]1(C)C(F)(F)F [Example 5a, (S)-1-(2-Hydroxy-2-methyl-propyl)-2-methyl-7-(morpholin-4-yl)-2-(trifluoromethyl)-2,3-dihydroimidazo[1,2-a]pyrimidin-5(1H)-one]
10 | < 10 | – | COC(C)(C)CN1c2nc(N3CCOCC3)cc(=O)n2C[C@@]1(C)C(F)(F)F [Example 6a, (S)-1-(2-Methoxy-2-methyl-propyl)-2-methyl-7-(morpholin-4-yl)-2-(trifluoromethyl)-2,3-dihydroimidazo[1,2-a]pyrimidin-5(1H)-one]
11 | 10 to 100 | 107.8 | O=c1cc(N2CCOCC2)nc2n1CC[C@@H](C(F)(F)F)N2CCOCC(F)(F)F [Example 6b, (S)-2-(Morpholin-4-yl)-9-[2-(2,2,2-trifluoro-ethoxy)-ethyl]-8-(trifluoromethyl)-6,7,8,9-tetrahydro-4H-pyrimido[1,2-a]pyrimidin-4-one]
12 | > 100 | – | CC(C)OCCN1c2nc(N3CCOCC3)cc(=O)n2CC1(C)C [Example 7a, 1-(2-Isopropoxyethyl)-2,2-dimethyl-7-(morpholin-4-yl)-2,3-dihydroimidazo[1,2-a]pyrimidin-5(1H)-one]
13 | < 10 | 117 | CC(C)OCCN1c2nc(N3CCOCC3)c(F)c(=O)n2CC[C@H]1C(F)(F)F [Example 7b, (8S)-3-Fluoro-9-(2-isopropoxy-ethyl)-2-(morpholin-4-yl)-8-(trifluoromethyl)-6,7,8,9-tetrahydro-4H-pyrimido[1,2-a]pyrimidin-4-one]
14 | > 100 | – | COCCN1c2nc(N3CCOCC3)cc(=O)n2CC12CCCC2 [Example 8a, 1′-(2-Methoxyethyl)-7′-morpholin-4-ylspiro[cyclopentane-1,2′-imidazo[1,2-a]pyrimidin]-5′-one]
15 | < 10 | – | CC(C)(O)CN1c2nc(N3CCOCC3)cc(=O)n2CC[C@H]1C(F)(F)F [Example 8b, (8S)-9-(2-Hydroxy-2-methylpropyl)-2-(morpholin-4-yl)-8-(trifluoromethyl)-6,7,8,9-tetrahydro-4H-pyrimido[1,2-a]pyrimidin-4-one]
16 | 10 to 100 | – | CC(C)OCCN1c2nc(N3CCOCC3)cc(=O)n2CC12CCCC2 [Example 9a, 1′-(2-isopropoxyethyl)-7′-morpholin-4-ylspiro[cyclopentane-1,2′-imidazo[1,2-a]pyrimidin]-5′-one]
17 | > 100 | 170 | Cc1c(N2CCOCC2)nc2n(c1=O)CC[C@@H](C(F)(F)F)N2CC(C)(C)O [Example 9b, (S)-9-(2-Hydroxy-2-methyl-propyl)-3-methyl-2-(morpholin-4-yl)-8-trifluoromethyl-6,7,8,9-tetrahydro-4H-pyrimido[1,2-a]pyrimidin-4-one]
18 | 10 to 100 | 172 | COC(C)(C)CN1c2nc(N3CCOCC3)cc(=O)n2CC[C@H]1C(F)(F)F [Example 10b, (S)-9-(2-Methoxy-2-methyl-propyl)-2-(morpholin-4-yl)-8-trifluoromethyl-6,7,8,9-tetrahydro-4H-pyrimido[1,2-a]pyrimidin-4-one]
19 | < 10 | – | CC(C)OCCN1c2nc(N3CCOCC3)cc(=O)n2CC[C@@]1(C)C(F)(F)F [Example 11Ab, (8S)-8-Methyl-2-(morpholin-4-yl)-9-(2-(propan-2-yloxy)ethyl)-8-(trifluoromethyl)-6,7,8,9-tetrahydro-4H-pyrimido[1,2-a]pyrimidin-4-one]
20 | > 100 | – | CC(C)OCCN1c2nc(N3CCOCC3)cc(=O)n2CC[C@]1(C)C(F)(F)F [Example 11Bb, (8R)-8-Methyl-2-(morpholin-4-yl)-9-(2-(propan-2-yloxy)ethyl)-8-(trifluoromethyl)-6,7,8,9-tetrahydro-4H-pyrimido[1,2-a]pyrimidin-4-one]
21 | 10 to 100 | – | COCCN1c2nc(N3CCOCC3)cc(=O)n2CCC1(C)C [Example 12b, 9-(2-Methoxyethyl)-8,8-dimethyl-2-(morpholin-4-yl)-6,7,8,9-tetrahydro-4H-pyrimido[1,2-a]pyrimidin-4-one]
22 | 10 to 100 | – | CC(C)OCCN1c2nc(N3CCOCC3)cc(=O)n2CCC1(C)C [Example 13b, 9-(2-Isopropoxyethyl)-8,8-dimethyl-2-(morpholin-4-yl)-6,7,8,9-tetrahydro-4H-pyrimido[1,2-a]pyrimidin-4-one]
23 | > 100 | – | COCCN1CC(C)(C)Cn2c1nc(N1CCOCC1)cc2=O [Example 14b, 9-(2-Methoxyethyl)-7,7-dimethyl-2-(morpholin-4-yl)-6,7,8,9-tetrahydro-4H-pyrimido[1,2-a]pyrimidin-4-one]
24 | > 100 | – | CC(C)OCCN1CC(C)(C)Cn2c1nc(N1CCOCC1)cc2=O [Example 15b, 9-(2-Isopropoxyethyl)-7,7-dimethyl-2-(morpholin-4-yl)-6,7,8,9-tetrahydro-4H-pyrimido[1,2-a]pyrimidin-4-one]
25 | 10 to 100 | – | CC(C)OCCN1CC2(CC2)Cn2c1nc(N1CCOCC1)cc2=O [Example 16b, 1-(2-Isopropoxyethyl)-8′-(morpholin-4-yl)-1′,2′-dihydro-spiro[cyclopropane-1,3′-pyrimido[1,2-a]pyrimidin]-6′-one]
26 | < 10 | 96 | CS(=O)(=O)CCN1c2nc(N3CCOCC3)cc(=O)n2CC[C@H]1C(F)(F)F [Example 17b, (8S)-9-(2-Methanesulfonyl-ethyl)-2-morpholin-4-yl-8-trifluoromethyl-6,7,8,9-tetrahydro-pyrimido[1,2-a]pyrimidin-4-one]
